Test results as given in PMC9005681, “Use of AD Informer Set compounds to explore validity of novel targets in Alzheimer's disease pathology” (Alzheimer's & Dementia : Translational Research & Clinical …, 2022).
Values joined by “and” are separate entries in the source; they are usually repeats but may differ in a detail not shown here. Equal entries are not always repeated.

Legend:
Test in all cases: PDSP GPCR panel primary binding assays at 10 μM
[1] = biological target: T1, cloned human or rodent CNS receptors, channels, and transporters (PDSP panel) (Homo sapiens, UniProt P11229); details: primary assay
T1 construct: expressed in transfected cells
T1 sequence (P11229 1-460): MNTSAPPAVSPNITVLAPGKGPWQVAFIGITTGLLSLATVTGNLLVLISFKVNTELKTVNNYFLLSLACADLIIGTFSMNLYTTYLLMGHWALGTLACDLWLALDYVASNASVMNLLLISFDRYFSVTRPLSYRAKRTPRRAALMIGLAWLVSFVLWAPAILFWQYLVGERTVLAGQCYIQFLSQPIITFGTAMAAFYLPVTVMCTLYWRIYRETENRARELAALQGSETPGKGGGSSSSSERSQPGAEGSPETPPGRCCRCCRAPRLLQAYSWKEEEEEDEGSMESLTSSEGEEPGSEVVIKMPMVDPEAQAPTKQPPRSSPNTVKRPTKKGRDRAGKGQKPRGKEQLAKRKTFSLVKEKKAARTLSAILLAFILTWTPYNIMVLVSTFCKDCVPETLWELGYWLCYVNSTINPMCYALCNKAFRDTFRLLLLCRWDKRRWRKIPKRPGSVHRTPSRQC
Method in brief: (§1)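 Secondary binding curves (11 points, triplicate) were run at targets where the 10 μM primary screen, done in quadruplicate, displaced over 50% of radio-labelled standard ligand on average. Primary screening covered 46–47 cloned human or rodent CNS targets; H3, PBR and GABAA were not followed up.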

[2] = biological target: T2, cloned human or rodent CNS receptors, channels, and transporters (PDSP panel) (Homo sapiens, UniProt P34969); details: Receptor 5-HT7A, primary assay, 10 μM; for Mean %: mean of Inhibition 1-4
T2 construct: expressed in transfected cells
T2 sequence (P34969 whole entry): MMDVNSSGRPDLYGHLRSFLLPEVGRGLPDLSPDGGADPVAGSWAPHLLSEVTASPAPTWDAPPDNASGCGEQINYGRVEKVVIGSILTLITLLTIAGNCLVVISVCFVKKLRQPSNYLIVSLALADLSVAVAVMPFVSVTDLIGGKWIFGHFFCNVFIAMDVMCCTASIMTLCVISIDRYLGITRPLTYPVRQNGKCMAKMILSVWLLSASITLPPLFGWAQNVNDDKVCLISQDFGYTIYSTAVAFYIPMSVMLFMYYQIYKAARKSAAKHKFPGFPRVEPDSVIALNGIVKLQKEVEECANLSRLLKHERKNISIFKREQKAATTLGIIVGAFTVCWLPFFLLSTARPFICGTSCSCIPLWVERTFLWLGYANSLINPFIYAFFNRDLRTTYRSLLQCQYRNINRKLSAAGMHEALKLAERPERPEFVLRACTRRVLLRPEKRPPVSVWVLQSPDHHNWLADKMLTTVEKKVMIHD
Method in brief: as §1

[3] = biological target: T3, cloned human or rodent CNS receptors, channels, and transporters (PDSP panel) (Homo sapiens, UniProt P21918); details: Receptor D5, primary assay, 10 μM; for Mean %: mean of Inhibition 1-4
T3 construct: expressed in transfected cells
T3 sequence (P21918 whole entry): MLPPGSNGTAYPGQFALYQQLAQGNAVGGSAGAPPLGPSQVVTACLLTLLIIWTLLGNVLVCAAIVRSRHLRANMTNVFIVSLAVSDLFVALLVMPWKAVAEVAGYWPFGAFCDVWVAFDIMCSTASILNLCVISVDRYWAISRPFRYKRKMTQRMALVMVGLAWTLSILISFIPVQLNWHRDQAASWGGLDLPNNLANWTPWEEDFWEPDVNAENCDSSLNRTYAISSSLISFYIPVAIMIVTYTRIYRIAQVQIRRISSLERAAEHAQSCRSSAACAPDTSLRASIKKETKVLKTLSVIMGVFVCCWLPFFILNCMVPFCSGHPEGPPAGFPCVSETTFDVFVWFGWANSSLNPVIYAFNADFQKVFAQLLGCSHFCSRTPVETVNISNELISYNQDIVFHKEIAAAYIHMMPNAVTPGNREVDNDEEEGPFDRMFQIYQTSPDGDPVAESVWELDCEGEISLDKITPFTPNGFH
Method in brief: as §1

[4] = biological target: T4, cloned human or rodent CNS receptors, channels, and transporters (PDSP panel) (Homo sapiens, UniProt P21728); details: Receptor D1, primary assay, 10 μM; for Mean %: mean of Inhibition 1-4
T4 construct: expressed in transfected cells
T4 sequence (P21728 whole entry): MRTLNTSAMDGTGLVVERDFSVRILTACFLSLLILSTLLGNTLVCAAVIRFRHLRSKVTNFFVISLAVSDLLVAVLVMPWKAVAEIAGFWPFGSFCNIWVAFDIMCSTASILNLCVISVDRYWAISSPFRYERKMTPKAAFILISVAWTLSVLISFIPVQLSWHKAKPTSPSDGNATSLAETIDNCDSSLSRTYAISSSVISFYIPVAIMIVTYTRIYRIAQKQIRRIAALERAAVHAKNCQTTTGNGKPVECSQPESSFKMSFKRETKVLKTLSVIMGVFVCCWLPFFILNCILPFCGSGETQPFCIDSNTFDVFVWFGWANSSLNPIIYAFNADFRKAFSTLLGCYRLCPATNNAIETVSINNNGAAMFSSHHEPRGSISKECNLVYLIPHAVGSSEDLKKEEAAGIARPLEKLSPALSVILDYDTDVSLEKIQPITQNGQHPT
Method in brief: as §1

[5] = biological target: T5, cloned human or rodent CNS receptors, channels, and transporters (PDSP panel) (Homo sapiens, UniProt P35367); details: Receptor H1, primary assay, 10 μM
T5 construct: expressed in transfected cells
T5 sequence (P35367 whole entry): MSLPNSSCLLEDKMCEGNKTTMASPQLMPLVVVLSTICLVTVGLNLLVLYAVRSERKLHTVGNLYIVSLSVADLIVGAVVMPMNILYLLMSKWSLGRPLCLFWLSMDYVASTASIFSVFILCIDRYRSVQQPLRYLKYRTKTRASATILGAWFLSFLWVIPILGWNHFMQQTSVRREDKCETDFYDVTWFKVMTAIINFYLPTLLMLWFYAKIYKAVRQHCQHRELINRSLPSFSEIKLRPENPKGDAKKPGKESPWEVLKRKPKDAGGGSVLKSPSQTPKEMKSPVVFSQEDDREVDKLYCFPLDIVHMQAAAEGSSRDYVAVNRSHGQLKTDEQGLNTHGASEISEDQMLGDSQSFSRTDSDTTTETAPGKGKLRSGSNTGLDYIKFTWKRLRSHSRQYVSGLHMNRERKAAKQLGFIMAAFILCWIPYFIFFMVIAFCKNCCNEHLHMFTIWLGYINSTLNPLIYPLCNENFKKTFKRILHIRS
Method in brief: as §1

[6] = biological target: T6, cloned human or rodent CNS receptors, channels, and transporters (PDSP panel) (Homo sapiens, UniProt P41145); details: Receptor KOR, primary assay, 10 μM; for Mean %: mean of Inhibition 1-4
T6 construct: expressed in transfected cells
T6 sequence (P41145 whole entry): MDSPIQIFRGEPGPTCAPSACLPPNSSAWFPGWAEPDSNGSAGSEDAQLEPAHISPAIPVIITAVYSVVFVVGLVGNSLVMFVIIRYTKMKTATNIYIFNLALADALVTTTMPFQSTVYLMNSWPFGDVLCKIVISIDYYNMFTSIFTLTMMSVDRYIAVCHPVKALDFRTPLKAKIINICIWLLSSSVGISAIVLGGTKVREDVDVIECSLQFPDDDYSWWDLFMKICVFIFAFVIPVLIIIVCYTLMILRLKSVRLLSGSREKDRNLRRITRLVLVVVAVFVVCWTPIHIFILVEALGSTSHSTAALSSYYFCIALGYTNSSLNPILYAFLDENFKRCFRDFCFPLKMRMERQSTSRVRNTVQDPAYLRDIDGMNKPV
Method in brief: as §1

[7] = biological target: T7, cloned human or rodent CNS receptors, channels, and transporters (PDSP panel) (Homo sapiens, UniProt P28223); details: Receptor 5-HT2A, primary assay, 10 μM; for Mean %: mean of Inhibition 1-4
T7 construct: expressed in transfected cells
T7 sequence (P28223 whole entry): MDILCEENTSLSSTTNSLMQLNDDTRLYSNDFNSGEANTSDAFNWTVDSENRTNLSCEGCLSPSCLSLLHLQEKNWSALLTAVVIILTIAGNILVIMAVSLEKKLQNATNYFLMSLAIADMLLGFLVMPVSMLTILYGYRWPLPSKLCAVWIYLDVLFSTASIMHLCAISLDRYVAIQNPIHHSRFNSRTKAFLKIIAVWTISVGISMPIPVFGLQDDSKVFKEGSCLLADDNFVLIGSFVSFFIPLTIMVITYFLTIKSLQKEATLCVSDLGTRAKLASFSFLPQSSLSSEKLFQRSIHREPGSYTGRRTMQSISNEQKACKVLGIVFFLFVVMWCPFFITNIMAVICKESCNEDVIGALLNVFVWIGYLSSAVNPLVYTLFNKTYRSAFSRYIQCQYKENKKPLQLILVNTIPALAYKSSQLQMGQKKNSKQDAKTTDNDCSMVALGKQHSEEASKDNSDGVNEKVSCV
Method in brief: as §1

[8] = system: cloned human or rodent CNS receptors, channels, and transporters (PDSP panel); details: primary assay
Method in brief: as §1

[9] = biological target: T8, cloned human or rodent CNS receptors, channels, and transporters (PDSP panel) (Homo sapiens, UniProt P14416); details: Receptor D2, primary assay, 10 μM; for Mean %: mean of Inhibition 1-4
T8 construct: expressed in transfected cells
T8 sequence (P14416 whole entry): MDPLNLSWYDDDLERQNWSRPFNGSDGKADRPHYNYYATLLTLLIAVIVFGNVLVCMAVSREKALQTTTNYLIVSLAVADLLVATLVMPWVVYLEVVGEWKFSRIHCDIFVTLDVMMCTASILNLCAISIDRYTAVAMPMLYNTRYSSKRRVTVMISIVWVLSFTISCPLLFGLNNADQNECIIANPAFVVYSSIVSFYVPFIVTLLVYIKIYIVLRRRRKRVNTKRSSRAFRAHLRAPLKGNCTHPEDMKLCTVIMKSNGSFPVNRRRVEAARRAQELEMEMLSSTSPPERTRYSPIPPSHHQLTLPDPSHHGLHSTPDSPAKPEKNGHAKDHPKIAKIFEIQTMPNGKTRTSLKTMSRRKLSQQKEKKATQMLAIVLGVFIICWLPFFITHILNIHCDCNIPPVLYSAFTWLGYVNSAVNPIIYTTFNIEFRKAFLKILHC
Method in brief: as §1

[10] = biological target: T9, cloned human or rodent CNS receptors, channels, and transporters (PDSP panel) (Rattus norvegicus, UniProt P16257); details: Receptor PBR, primary assay, 10 μM
T9 construct: expressed in transfected cells
Method in brief: as §1

[11] = Receptor Alpha1A, 10 μM, mean of Inhibition 1-4
[12] = Receptor Alpha2A, 10 μM, mean of Inhibition 1-4
[13] = Receptor Alpha2C, 10 μM, mean of Inhibition 1-4
[14] = Receptor BZP Rat Brain Site, 10 μM
[15] = Receptor BZP Rat Brain Site, 10 μM, mean of Inhibition 1-4
[16] = Receptor DOR, 10 μM, mean of Inhibition 1-4
[17] = Receptor Sigma 1, 10 μM, mean of Inhibition 1-4
[18] = Receptor Sigma 2, 10 μM, mean of Inhibition 1-4

## O=c1oc2ccccc2cc1-c1cn2cc(Cc3ccc(F)cc3)sc2n1 [UNC10302680A, iMDK]
[1]; M1, mean inhibition
  Mean %: 7.01%
[1]; M1, replicate 1
  Inhibition 1: 16.84%
[1]; M1, replicate 2
  Inhibition 2: 2.54%
[1]; M1, replicate 3
  Inhibition 3: 0.66%
[1]; M1, replicate 4
  Inhibition 4: 8%
[2]
  Inhibition 1: 13.87%
  Inhibition 2: 2.87%
  Inhibition 3: -0.54%
  Inhibition 4: 21.31%
  Mean %: 9.38%
[3]
  Inhibition 1: 22.41%
  Inhibition 2: 16.72%
  Inhibition 3: -1.22%
  Inhibition 4: 7.82%
  Mean %: 11.43%
[4]
  Inhibition 1: 5.91%
  Inhibition 2: 9.31%
  Inhibition 3: -0.89%
  Inhibition 4: -9.8%
  Mean %: 1.13%
[5]
  Inhibition 1: 99.74%
  Inhibition 2: 88.41%
  Inhibition 3: 71.44%
  Inhibition 4: 51.8%
[5]; mean of Inhibition 1-4
  Mean %: 77.85%
[6]
  Inhibition 1: -23.4%
  Inhibition 2: -19.7%
  Inhibition 3: -5.6%
  Inhibition 4: -21.38%
  Mean %: -17.52%
[7]
  Inhibition 1: 12.31%
  Inhibition 2: -11.86%
  Inhibition 3: -8.41%
  Inhibition 4: 9.68%
  Mean %: 0.43%
[8]; H3, mean inhibition
  Mean %: 41.02%
[8]; H3, replicate 1
  Inhibition 1: 20.04%
[8]; H3, replicate 2
  Inhibition 2: 32.28%
[8]; H3, replicate 3
  Inhibition 3: 47.14%
[8]; H3, replicate 4
  Inhibition 4: 64.63%
[8]; H4, mean inhibition
  Mean %: 39.36%
[8]; H4, replicate 1
  Inhibition 1: 11.58%
[8]; H4, replicate 2
  Inhibition 2: 47.34%
[8]; H4, replicate 3
  Inhibition 3: 40.86%
[8]; H4, replicate 4
  Inhibition 4: 57.67%
[8]; Receptor Alpha1A, 10 μM
  Inhibition 1: -21.6%
  Inhibition 2: -1.59%
  Inhibition 3: -0.84%
  Inhibition 4: -9.82%
[8]; [11]
  Mean %: -8.46%
[8]; Receptor Alpha2A, 10 μM
  Inhibition 1: 9.97%
  Inhibition 2: 11.68%
  Inhibition 3: -0.74%
  Inhibition 4: -29.15%
[8]; [12]
  Mean %: -2.06%
[8]; Receptor Alpha2C, 10 μM
  Inhibition 1: 20.53%
  Inhibition 2: 3.75%
  Inhibition 3: 5.64%
  Inhibition 4: 4%
[8]; [13]
  Mean %: 8.48%
[8]; [14]
  Inhibition 1: -12.35%
  Inhibition 2: -8.18%
  Inhibition 3: -22.2%
  Inhibition 4: 3.1%
[8]; [15]
  Mean %: -9.91%
[8]; Receptor DOR, 10 μM
  Inhibition 1: -22.02%
  Inhibition 2: -14.61%
  Inhibition 3: -13.89%
  Inhibition 4: -8.29%
[8]; [16]
  Mean %: -14.7%
[8]; Receptor Sigma 1, 10 μM
  Inhibition 1: 7.22%
  Inhibition 2: -7.42%
  Inhibition 3: 1.64%
  Inhibition 4: 5.36%
[8]; [17]
  Mean %: 1.7%
[8]; Receptor Sigma 2, 10 μM
  Inhibition 1: 14.42%
  Inhibition 2: 15.13%
  Inhibition 3: 40.23%
  Inhibition 4: 21.82%
[8]; [18]
  Mean %: 22.9%
[9]
  Inhibition 1: 11.41%
  Inhibition 2: -7.84%
  Inhibition 3: -2.59%
  Inhibition 4: 7.52%
  Mean %: 2.13%

## c1cn2cc(-c3ccc4cn[nH]c4c3)nc(Nc3ccc(N4CCOCC4)cc3)c2n1 [UNC10302678A, Entospletinib (GS-9973)]
[1]; Receptor M1, 10 μM
  Inhibition 1: 19.66%
  Inhibition 2: -3.67%
  Inhibition 3: -8.18%
  Inhibition 4: 2.73%
[1]; Receptor M1, 10 μM, mean of Inhibition 1-4
  Mean %: 2.64%
[2]
  Inhibition 1: 7.05%
  Inhibition 2: 11.23%
  Inhibition 3: 9.37%
  Inhibition 4: 35.72%
  Mean %: 15.84%
[3]
  Inhibition 1: 5.49%
  Inhibition 2: 5.93%
  Inhibition 3: 8.99%
  Inhibition 4: 11.03%
  Mean %: 7.86%
[10]
  Inhibition 1: 4.64% and -2.11%
  Inhibition 4: 21.43% and 15.83%
[10]; mean of Inhibition 1-4
  Mean %: 13.23% and 8.44%
[4]
  Inhibition 1: 2.51%
  Inhibition 2: -3%
  Inhibition 3: -32.95%
  Inhibition 4: 7.37%
  Mean %: -6.52%
[6]
  Inhibition 1: -28.1%
  Inhibition 2: -33.36%
  Inhibition 3: -49.37%
  Inhibition 4: -45.23%
  Mean %: -39.02%
[7]
  Inhibition 1: -1.01%
  Inhibition 2: -14.98%
  Inhibition 3: -19.59%
  Inhibition 4: -10.22%
  Mean %: -11.45%
[8]; Receptor Alpha1A, 10 μM
  Inhibition 1: -6.64%
  Inhibition 2: -39.37%
  Inhibition 3: -29.27%
  Inhibition 4: -15.24%
[8]; [11]
  Mean %: -22.63%
[8]; Receptor Alpha2A, 10 μM
  Inhibition 1: -9.73%
  Inhibition 2: -11.16%
  Inhibition 3: -12.52%
  Inhibition 4: 5.61%
[8]; [12]
  Mean %: -6.95%
[8]; Receptor Alpha2C, 10 μM
  Inhibition 1: 4.82%
  Inhibition 2: 7.15%
  Inhibition 3: 3.37%
  Inhibition 4: 11.76%
[8]; [13]
  Mean %: 6.78%
[8]; [14]
  Inhibition 1: 2.63%
  Inhibition 2: -6.94%
  Inhibition 3: -0.59%
  Inhibition 4: 10.21%
[8]; [15]
  Mean %: 1.33%
[8]; Receptor DOR, 10 μM
  Inhibition 1: -7.03%
  Inhibition 2: -15.52%
  Inhibition 3: 1.47%
  Inhibition 4: -11.54%
[8]; [16]
  Mean %: -8.16%
[8]; Receptor H3, 10 μM
  Inhibition 1: 4.01%
  Inhibition 2: 32.57%
  Inhibition 3: 40.44%
  Inhibition 4: 49.18%
[8]; Receptor H3, 10 μM, mean of Inhibition 1-4
  Mean %: 31.55%
[8]; Receptor H4, 10 μM
  Inhibition 1: 40.38%
  Inhibition 2: 31.02%
  Inhibition 3: 31.26%
  Inhibition 4: 64.39%
[8]; Receptor H4, 10 μM, mean of Inhibition 1-4
  Mean %: 41.76%
[8]; Receptor Sigma 1, 10 μM
  Inhibition 1: 24.21%
  Inhibition 2: 17.43%
  Inhibition 3: 8.82%
  Inhibition 4: -3.67%
[8]; [17]
  Mean %: 11.7%
[8]; Receptor Sigma 2, 10 μM
  Inhibition 1: 10.94%
  Inhibition 2: -1.79%
  Inhibition 3: -3.28%
  Inhibition 4: -0.08%
[8]; [18]
  Mean %: 1.45%
[9]
  Inhibition 1: 15.89%
  Inhibition 2: 4.51%
  Inhibition 3: -1.13%
  Inhibition 4: -7.35%
  Mean %: 2.98%
